According to patent publication EP0802730B1, “PESTICIDAL COMPOUNDS” (BTG INTERNATIONAL LIMITED, priority 1995, dated 1996):
Converted amounts (≈) assume the structure as drawn. Where two headings read alike, the source gives them in different places.

Assays:
[1] = system: Mustard beetles (PC) (Phaedon cochleariae Fab); assay type: in vivo; conditions: NA = lack of detectable activity; for PC (LD50): 1 µl acetone drop applied ventrally to adults, kill at 48 hours
Method: A one microlitre drop of an acetone solution of the test compound was applied ventrally to adult mustard beetles using a micro drop applicator. The treated insects were maintained for 48 hours after which time kill was assessed. Two replicates each of 20 to 25 mustard beetles were used at each dose level and 5 dose levels were treated comparably. LD50 values were calculated as for houseflies.

[2] = system: Houseflies (MD) (Musca domestica); assay type: in vivo
Method: Female flies were treated on the thorax with a one microlitre drop of test compound dissolved in acetone. Two replicates of 15 flies were used at each dose rate and 6 dose rates were used per compound under test. After treatment, the flies were maintained at a temperature of 20° ± 1°C and kill was assessed 24 and 48 hours after treatment. LD50 values were calculated in micrograms of test compound per fly (see Sawicki et al., Bulletin of the World Health Organisation, 35, 893 (1966) and Sawicki et al., Entomologia and Exp. Appli 10, 253, (1967).

[3] = system: resistant whitefly (BT) (Bemisia tabaci), Ned 7; assay: Whitefly vial test, resistant strain Ned 7; assay type: in vivo; conditions: 48 h, read-out: BT (Ned 7) (LC50)
Method: Acetone solutions (0.100 ml) of the test compounds were placed in 10 ml glass vials and evaporated with rotation to deposit a film of the compound. Thirty adult whiteflies were placed inside the vial, then after 60 minutes, the treated insects were transferred onto untreated cotton leaf discs which were kept moist on a bed of agar gel. The temperature was maintained at 25°C and mortality assessed after 48 hours. Three replicates were used at each of 5 to 7 dose levels per compound. LC50 values (ppm solution) were calculated by using a computer software package ("Polo-PC available from LeOra Software, Berkeley, California) (See M.R. Cahill and B. Hackett in Proceedings Brighton Crop Protection Conference, 1992). The test was carried out using a susceptible strain of whitefly (SUD-S) which was collected in Sudan in 1978 from cotton.
The test of Example 16 (BT (SUD-S)) was repeated using a resistant strain of whitefly (Ned 7). The Ned 7 strain was collected in the Netherlands in April, 1993 from hibiscus by J. Fransen and is highly resistant to organophosphate and carbamate insecticides and the insect growth regulator buprofezin.

[4] = system: Whitefly (BT) (Bemisia tabaci), susceptible strain (SUD-S); assay: Whitefly residual film vial test, susceptible strain SUD-S; assay type: in vivo
Method: Acetone solutions (0.100 ml) of the test compounds were placed in 10 ml glass vials and evaporated with rotation to deposit a film of the compound. Thirty adult whiteflies were placed inside the vial, then after 60 minutes, the treated insects were transferred onto untreated cotton leaf discs which were kept moist on a bed of agar gel. The temperature was maintained at 25°C and mortality assessed after 48 hours. Three replicates were used at each of 5 to 7 dose levels per compound.

[5] = system: Mites (TU) (Tetranychus urticae), susceptible strain (GSS); assay: Mite immersion test, susceptible strain GSS; assay type: in vivo
Method: 25 adult female mites were immersed in 35 µl of a solution of the test compound in a 1:4 acetone-water mixture for 30 seconds. The treated insects were maintained at 21° ± 2°C and kill was assessed 72 hours after treatment. […] Three replicates of 25 mites each were used at each dose rate and 5 or 6 dose rates were used per compound under test. LC50 values were calculated in ppm of the solution of the test compound per insect. The test was carried out using a susceptible strain of mites (GSS) supplied by Schering, AG, Berlin.

Aspergillus niger = assay: Fungitoxicity in vitro on potato dextrose agar; assay type: cell-based; conditions: A. niger; 100 mg 1^-1; 4 days
Rhizoctonia solani = assay: Fungitoxicity in vitro on potato dextrose agar; assay type: cell-based; conditions: R. solani; 100 mg 1^-1; 4 days
[6] = system: Myzus persicae, susceptible strain (US1L); assay: Aphid dip test, susceptible strain; assay type: in vivo
Method: Activity against resistant (R) and susceptible (S) strains of aphid (Myzus persicae) was assessed using the following method.
Entrapment rings of fluon were painted halfway up the inside of 4 cm lengths of glass tubing (1.5 cm diameter), and squares of insect-proof gauze were attached to one end of each tube by elastic bands. Fifteen apterous adults were then gently transferred into the tubes using a sable-hair brush, and the tube sealed with a second gauze square.
Tubes containing aphids were dipped into insecticide solutions for 10 seconds, dried on blotting paper, and then inverted and tapped to cause treated aphids to fall to the unimmersed end of each tube. Handling mortality (usually zero or very slight) was scored after 1 hour, when aphids were transferred onto chinese cabbage leaf-discs (35 mm diameter) on an agar bed (25 mm in depth) in disposible plastic containers (30 mm high) and confined by applying a ring of fluon to the exposed lip of the container. Containers were store upright, without lids, in a constant environment facility maintained at 25°C under continuous room lighting. Mortality was assessed at 24, 48 and 72 hours. Two replicates of 15 aphids each were used at each dose rate and 5 or 6 dose rates were used per compound under test.
The test was carried out using a susceptible strain of aphids (US1L) collected in the field in East Anglia, UK and an extremely resistant strain of aphids (794Jz) (R3 esterase, sensitive AChE) collected from glasshouses in the UK.
The values given are % mortality corrected for control data. The control comprised the test solution without active ingredient.

[7] = Mammalian toxicity, whole body LD50; conditions: rat, in vivo; rats
From the text: In addition to the specific insecticidal and acaricidal tests described above, compounds of the present invention were submitted for further tests relating to toxicity to mammals and so-called friendly species such as Chrysloperla carnea, Aleochora bilineata and Coccinella septempunctata.

[8] = system: Pyricularia oryzae (=Magnaporthe grisea); assay type: cell-based; conditions: P. oryzae; 100 mg 1^-1; 7 days
[9] = ppm solution of test compound, 60 minutes film exposure, mortality after 48 hours, read-out: BT(SUD-S) (LC50)
[10] = ppm solution of test compound, 30 seconds immersion, kill at 72 hours, read-out: TU(GSS) (LC50)

## CCCCCCCCCCCCC1=C(OC(C)=O)C(=O)c2ccccc2C1=O [Compound A, 2-n-dodecyl-3-ethanoyloxynaphthalene-1,4-dione, reference compound]
[1]
  PC (LD50): 0.36 µg/insect
[2]; topical 1 µl drop in acetone on female flies, kill assessed 24 and 48 hours
  MD (LD50): >> 20 µg/insect
[3]
  LC50: 470 µg/mL (≈ 1220 µM)
[4]; [9]
  LC50: 82 µg/mL (≈ 213 µM)
[5]; [10]
  LC50: 64 µg/mL (≈ 166 µM)

## C=CC(C)(C)C1=C(OC(=O)CCC)C(=O)c2ccccc2C1=O [Example 5]
[1]
  PC (LD50): 6.9 µg/insect
[3]; resistant strain Ned 7, ppm solution of test compound
  LC50: 21 µg/mL (≈ 67.2 µM)
[4]; [9]
  LC50: 13 µg/mL (≈ 41.6 µM)
[5]; [10]
  LC50: 84 µg/mL (≈ 269 µM)

## CC1(C2=C(O)C(=O)c3ccccc3C2=O)CCCCC1 [Example 25, 2-hydroxy-3-(1'-methylcyclohexyl)-naphthalene-1,4-dione]
Aspergillus niger
  % inhibition of growth in colony diameter in agar plates, Activity at 100 mg 1^-1: 45%
[1]; Tables 10, 13, 14
  PC LD50 (µg/insect): 5 µg/insect
[2]; Tables 10, 13, 14, NA = lack of detectable activity
  MD LD50 (µg/insect): 1.9 µg/insect
Rhizoctonia solani
  % inhibition of growth in colony diameter in agar plates, Activity at 100 mg 1^-1: 93%
[6]; read-out: MP % kill 100 ppm
  mortality at 100 ppm: 22%
[6]; strain S, 100 PPM, read-out: % mortality corrected for control data
  mortality at 100 ppm: 23%
[6]; strain S, 250 PPM, read-out: % mortality corrected for control data
  mortality at 250 ppm: 67%
[4]; 48 h, Tables 10, 13, 14, susceptible strain, NA = lack of detectable activity, read-out: BT LC50 (ppm/insect)
  LC50: 0.1 µg/mL (≈ 0.37 µM)
[5]; 72 h, Tables 10, 13, 14, susceptible strain, NA = lack of detectable activity, read-out: TU LC50 (ppm/insect)
  LC50: 28 µg/mL (≈ 104 µM)
[7]
  LD50: 2790 mg/kg
[8]
  % inhibition of growth in colony diameter in agar plates, Activity at 100 mg 1^-1: 94%
